Results taken from patent publication US9540649B2, “Method for opening tight junctions” (The Provost, Fellows and Scholars of the College of the …, priority 2007, dated 2017).
“Also recorded” adds a separate entry of the source.

Legend:
[1] = system: claudin-1; experiment: Claudin-1 expression following suppression of claudin-5 (Western blot, double immunostaining); type: in vivo, C57/Bl6 mice
[2] = system: BBB; experiment: MRI assessment of BBB integrity with contrasting agent Gd-DTPA (742 Da); type: in vivo, C57/Bl6 mice
Description: Following injection of siRNA and using appropriate controls, BBB integrity was assessed in vivo via MRI, using a dedicated small rodent Bruker BioSpec 70/30 (i.e. 7 T, 30 cm bore) with an actively shielded USR Magnet. Mice were anaesthetised with isofluorane, and physiologically monitored (ECG, respiration and temperature) and placed on an MRI-compatible support cradle, which has a built-in system for maintaining the animal's body temperature at 37° C. The cradle was then positioned within the MRI scanner. Accurate positioning is ensured by acquiring an initial rapid pilot image, which is then used to ensure the correct geometry is scanned in all subsequent MRI experiments. Upon insertion into the MRI scanner, high resolution anatomical images of the brain were acquired (100 μm in-plane and 500 μm through-plane spatial resolution). BBB integrity was then visualised in high resolution T1 weighted MR images before and after injection of a 0.1 mM/L/kg bolus of Gd-DTPA (Gadolinium diethylene-triamine pentaacetic acid), administered via the tail vein.
Gd-DTPA was injected in the tail vein to assess whether Gd-TPA would permeate across the BBB. Following injection of siRNA and using appropriate controls, BBB integrity to a molecule of 742 Daltons (Gd-DTPA) was assessed via MRI, using a dedicated small rodent Bruker BioSpec 70/30 (i.e. 7 T, 30 cm bore) with an actively shielded USR Magnet. Mice were anaesthetised with isofluorane, and physiologically monitored (ECG, respiration and temperature) and placed on an MRI-compatible support cradle, which has a built-in system for maintaining the animal's body temperature at 37° C. The cradle was then positioned within the MRI scanner. Accurate positioning is ensured by acquiring an initial rapid pilot image, which is then used to ensure the correct geometry is scanned in all subsequent MRI experiments. Upon insertion into the MRI scanner, high resolution anatomical images of the brain were acquired (100 μm in-plane and 500 μm through-plane spatial resolution). BBB integrity was then visualised in high resolution T1 weighted MR images before and after injection of a 0.1 mM/L/kg bolus of Gd-DTPA (Gadolinium diethylene-triamine pentaacetic acid), administered via the tail vein. Following injection of Gd-DTPA, repeated 3 minute T1-weighted scans were performed over a period of 30 minutes, and images shown are representative of the final scans of this 30 minute period. Statistical analysis of all densitometric results of combined regions of the Cerebellum, Hippocampus and Cortex was performed using ANOVA, with significance represented by a P value of ≦0.05, and results are presented both graphically and in a quantitative image depicting the rate of Gd-DTPA deposition within the brain. All MRI scans were performed on 2 mice from each experimental treatment.

[3] = MRI blood flow/volume (mean transit time, capillary transit time) in brain after claudin-5 siRNA; type: in vivo, mice; settings: 24 and 48 hours post-high volume tail vein injection; up to 8 animals per group
Description: 48 hours post-delivery of siRNA targeting claudin-5 or a non-targeting siRNA, a solution containing Gd-DTPA injected to the claudin-5 suppressed mice. Gd-DTPA was injected in the tail vein to assess whether Gd-TPA would permeate across the BBB. Following injection of siRNA and using appropriate controls, BBB integrity to a molecule of 742 Daltons (Gd-DTPA) was assessed via MRI, using a dedicated small rodent Bruker BioSpec 70/30 (i.e. 7 T, 30 cm bore) with an actively shielded USR Magnet. Mice were anaesthetised with isofluorane, and physiologically monitored (ECG, respiration and temperature) and placed on an MRI-compatible support cradle, which has a built-in system for maintaining the animal's body temperature at 37° C. The cradle was then positioned within the MRI scanner. Accurate positioning is ensured by acquiring an initial rapid pilot image, which is then used to ensure the correct geometry is scanned in all subsequent MRI experiments. […] Statistical analysis of all densitometric results of combined regions of the Cerebellum, Hippocampus and Cortex was performed using ANOVA, with significance represented by a P value of ≦0.05, and results are presented both graphically and in a quantitative image depicting the rate of Gd-DTPA deposition within the brain. […]
This is calculated from the first moment or mean of the curve. […]

[4] = system: claudin-5; experiment: Immunohistochemical analysis of claudin-5 expression and localisation in brain microvessels; type: in vivo, C57/Bl6 mice
Description: Rapid high pressure, high volume tail vein injections were carried out (Kiang et al., 2005). Wild type C57/Bl6 mice of weight 20-30 g were individually restrained inside a 60-ml volume plastic tube. The protruding tail was warmed for 5 minutes prior to injection under a 60-W lamp and the tail vein clearly visualized by illumination from below. 20 micrograms of targeting siRNA, or non-targeting siRNA made up with PBS to a volume in mls of 10% of the body weight in grams or PBS alone, was injected into the tail vein at a rate of 1 ml/sec using a 26-gauge (26 G 3/8) needle. After 24, 48, 72 hours and 1 week, protein was isolated from total brain tissue by crushing brains to a fine powder in liquid N2 and subsequently using lysis buffer containing 62.5 mM Tris, 2% SDS, 10 mM Dithiothreitol, 10 μl protease inhibitor cocktail/100 ml (Sigma Aldrich, Ireland). The homogenate was centrifuged at 10,000 g for 20 mins @4° C., and the supernatant was removed for claudin-5 analysis.
Brain cryosections were blocked with 5% Normal Goat Serum (NGS) in PBS for 20 mins at room temperature. Primary antibody (Rabbit anti-Claudin-5, Zymed, California) was incubated on sections overnight at 4° C. […] A secondary rabbit IgG-Cy3 antibody was incubated with the sections at 37° C. for 2 hours followed by 3 washes with PBS. All sections were counterstained with DAPI for 30 seconds at a dilution of 1:5000 of a stock 1 mg/ml solution. Analysis of stained sections was performed with an Olympus FluoView™ FV1000 Confocal microscope.

claudin-5 siRNA: siRNA, sense CGUUGGAAAUUCUGGGUCUUU (SEQ ID NO: 1), antisense AGACCCAGAAUUUCCAACGUU (SEQ ID NO: 2) (listed as RNA, chemistry not given here)
claudin-1 (23 kDa) expression, Western blot ([1]; 24, 48, 72 hours and 1 week post delivery of claudin-5 siRNA): no changes at any time points
claudin-1 expression, double immunostaining in brain cryosections ([1]; each time point post-injection of claudin-5 siRNA): remain similar to those observed in the control groups
densitometric analysis of MRI contrasting, Cerebellum, Hippocampus and Cortex combined ([2]; 24 hours and 48 hours post injection, vs control groups): significant increase in contrasting
Gd-DTPA (742 Da) passage across BBB, MRI ([2]; 24 hours post-injection): Gd-DTPA crossed the BBB and was deposited within the brain
Gd-DTPA (742 Da) passage across BBB, MRI ([2]; 48 hours post-injection): Gd-DTPA crossed the BBB and was deposited within the brain; also recorded: Gd-DTPA crossed the BBB and was deposited in the parenchymal tissue of the brain; also recorded: widespread and intense contrasting throughout the brain; also recorded: extremely large quantities of Gd-DTPA were deposited in the brain
Gd-DTPA (742 Da) passage across BBB, MRI ([2]; 48 hours post-injection, listed as siRNA targeting claudin-5): enhanced contrasting within the brain
Gd-DTPA (742 Da) passage across BBB, MRI ([2]; 72 hours or 1 week post-injection): intact barrier with no deposition of Gd-DTPA
Gd-DTPA (742 Da) passage across BBB, MRI ([2]; 72 hours or 1 week post-injection, listed as siRNA targeting claudin-5): nor was it present; also recorded: no deposition of Gd-DTPA
blood flow / blood volume in major brain vessels and capillaries (MTT, CTT), MRI [3]: no significant differences in blood flow; also recorded: not observing any difference in blood flow or blood volume
claudin-5 staining pattern in brain microvessels, immunohistochemistry ([4]; 24 hours post delivery): decreased and non-continuous; also recorded: less intense
claudin-5 staining pattern in brain microvessels, immunohistochemistry ([4]; 48 hours post injection): striking decrease in expression; also recorded: marked decrease; also recorded: dramatically reduced
claudin-5 staining pattern in brain microvessels, immunohistochemistry ([4]; 48 hours post injection, listed as siRNA targeting claudin-5): highly fragmented and discontinuous
claudin-5 staining pattern in brain microvessels, immunohistochemistry ([4]; 72 hours post-injection): evident, yet non-continuous; also recorded: evident, yet not as intense as the control groups; also recorded: still attenuated
